The results in this text go back to ChEMBL document CHEMBL5725778, “Condensed ring derivative, and preparation method, intermediate, pharmaceutical composition and use thereof” (2018).

Structures are written as SMILES.

Usually IC50 stands for the concentration that inhibits the measured activity by half.

The target in this experiment is T1, Solute carrier family 22 member 12 (Homo sapiens, UniProt Q96S37).
T1 sequence (Q96S37 whole entry): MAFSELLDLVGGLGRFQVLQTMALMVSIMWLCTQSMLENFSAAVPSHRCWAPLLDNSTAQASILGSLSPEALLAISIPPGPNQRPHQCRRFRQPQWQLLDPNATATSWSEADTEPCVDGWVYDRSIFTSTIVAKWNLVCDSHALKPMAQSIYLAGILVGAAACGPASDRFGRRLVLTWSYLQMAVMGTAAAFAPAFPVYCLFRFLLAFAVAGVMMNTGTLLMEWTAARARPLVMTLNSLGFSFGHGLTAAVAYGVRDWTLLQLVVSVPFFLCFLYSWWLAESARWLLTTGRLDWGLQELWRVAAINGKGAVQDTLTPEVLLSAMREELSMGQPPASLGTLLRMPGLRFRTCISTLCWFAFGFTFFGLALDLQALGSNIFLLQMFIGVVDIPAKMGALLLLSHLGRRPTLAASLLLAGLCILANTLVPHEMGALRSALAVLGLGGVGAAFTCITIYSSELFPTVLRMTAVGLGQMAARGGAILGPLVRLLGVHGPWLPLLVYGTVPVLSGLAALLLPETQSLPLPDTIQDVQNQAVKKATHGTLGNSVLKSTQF
Description: hURAT1 Inhibition Assay: Human embryonic kidney cells (HEK293) was incubated in DMEM tissue culture medium, at 37° C., under 5% CO2 and 95% air atmosphere. TransIT-293 transfection agent (MIRUS BIO, Cat. No. MIR2706) and model URAT1 were used to construct transfected HEK293 cells. Transfected HEK293/hURAT1 cells were used to the test for 14C-uric acid transport activity. HEK293/hURAT1 cells were seeded in a 96-well plate (BD, Cat. No. 356461) fully coating with poly-D-lysine at a density of 6×10^4 cells per well. Cells were incubated at 37° C. for at least 12 hrs in the calorstat, and then washed with pre-heated washing buffer (125 mM sodium gluconate, 10 mM HEPES pH=7.4) at an amount of 200 μL per well to wash out the culture medium. The uric acid [8-14C] (ARC, Cat. No. ARC0513-250UCI) containing or not containing the compound was added to 50 μL HBSS buffer which was free of chloric ion each well (HBSS buffer: 125 mM sodium gluconate, 4.8 mM potassium gluconate, 1.3 mM calcium gluconate, 1.2 mM potassium dihydrogen phosphate, 1.2 mM magnesium sulfate, 5.6 mM glucose, 25 mM HEPES pH=7.4) to make the specific concentration of the uric acid 1 μCi per well. The incubating solution was removed after 10 mins incubation, followed by adding 100 μL cold washing buffer, after washing with this buffer for 3 times, the buffer was completely removed from the well.
With `C[C@H](CC(=O)O)c1cc2c(-c3ccc(C#N)c4ccccc34)cncc2s1`, the IC50 worked out at 11 nM. The result for `C[C@@H](CC(=O)O)c1cc2cncc(-c3ccc(C#N)cc3)c2s1` reads 1860 nM; that for `C[C@H](Oc1ccc2cncc(-c3ccc(C#N)cc3)c2c1)C(=O)O`, 2690 nM; that for `C[C@@H](Oc1ccc2cncc(-c3ccc(C#N)cc3)c2c1)C(=O)O`, 5520 nM. With `C[C@H](CC(=O)O)c1cc2cncc(-c3ccc(C#N)c4ccccc34)c2s1` the figure was 580 nM; with `C[C@@H](CC(=O)O)c1cc2cncc(-c3ccc(C#N)c4ccccc34)c2s1`, 10 nM. The result for `CC(C)(Sc1ccc2cncc(-c3ccc(C#N)c4ccccc34)c2c1)C(=O)O` reads 8 nM; that for `C[C@H](CC(=O)O)c1cc2cncc(-c3ccc(C#N)cc3)c2s1`, 38 nM; that for `C[C@@H](CC(=O)O)c1cc2c(-c3ccc(C#N)c4ccccc34)cncc2s1`, 37 nM.
